# Data reported in article PMC7278776, “Multidrug Resistance Modulation Activity of Silybin Derivatives and Their Anti-Inflammatory Potential” (Antioxidants, 2020).
# Structures can show the parent of a compound that is named as a salt.
# How the values were obtained:
# [1] = tested on: nitric oxide (NO) production by LPS-stimulated macrophages (RAW 264.7); experiment: NO production by LPS-stimulated macrophages (Griess); format: cell-based, mouse; details: Mus musculus, RAW264.7; RAW 264.7, LPS 1 µg/mL, 24 h; read-out: NO Production, concentration necessary to halve NO production (IC50)
# Experimental: Immunomodulatory effect of tested compounds was determined as their ability to decrease nitric oxide (NO) production by LPS-stimulated macrophages (RAW 264.7, Sigma-Aldrich). Briefly, the cells were seeded into the 96-well plate at a density of 1 × 10^6 cells/mL in DMEM medium (supplemented with 2 mM L-glutamine and 1 × antibiotic antimycotic solution). After 48 h, the cells were washed with PBS. The MEM medium enriched with LPS (1 µg/mL) was added to the wells, together with the samples in the concentration range of 6.25–100 µM at a final volume of 100 µL. Indomethacin, a non-steroidal anti-inflammatory drug, was tested as a positive control in the concentration range 6.25–100 µM. After 24 h, the medium was used for the quantification of NO and inflammatory cytokines.
# After 15 min, absorbance was recorded at 540 nm.
# A2780/DOX [2] = experiment: Viability of A2780/DOX cells (resazurin)
# Experimental: To determine the NO production, the medium was mixed with Griess reagent (0.04 g/mL, prepared in deionized water) in a 1:1 ratio. After 15 min, absorbance was recorded at 540 nm. To determine cell viability, the resazurin solution (0.03 mg/mL in PBS) was added to the cells. After 2 h of incubation, fluorescence was recorded (560/590 nm, ex./em.).
# A multidrug resistant ovarian sub-line resistant to doxorubicin (A2780/DOX, Sigma-Aldrich) was cultivated in DMEM medium with 10% FBS and 1 × antibiotic antimycotic solution. Every other passage, doxorubicin at the final concentration of 0.1 µM was added to the culture medium to maintain the resistance of the cell line. To perform experiments, the cells were seeded at 1 × 10^5 cell/mL into the wells of a 96-well plate and incubated for 24 h. Afterwards, the cells were washed with PBS and fresh DMEM medium with tested compounds at 10, 20 and 30 µM were added to each well, except for the control wells. Subsequently, the cells were exposed to increasing concentrations of doxorubicin (0.6–20 µM) for 72 h. After incubation, the resazurin assay was performed as described above. The IC50 of doxorubicin was calculated for both the control and the samples and the fold change was counted up. […] The fold change lower than 1 means an antagonistic effect. (1) FOLD CHANGE=IC50 value of DOX cells treated with chemotherapeutic /IC50 value of DOX cells treated with chemotherapeutic and compound
# A2780/DOX [3] = experiment: Sensitization of the MDR cell line to doxorubicin; format: cell-based, human; details: Homo sapiens, no flavonolignan added, same value repeated in each column, read-out: IC50 of doxorubicin alone
# human recombinant P-gp = target: T1, human recombinant P-gp (Homo sapiens, UniProt P08183); experiment: biochemical; details: verapamil-stimulated P-gp ATPase, membrane fraction; read-out: P-gp, concentration necessary to halve ATP consumption (IC50)
# T1 construct: purchased Promega
# Experimental: The procedure and the dilution of the reagents were performed according to the manufacturer’s instructions. Briefly, the human recombinant P-gp-containing membrane (25 µg) was mixed in a 96-well plate with P-gp–Glo™ Assay buffer (control), verapamil (P-gp substrate, positive control, 0.2 mM), Na3VO4 (P-gp inhibitor, negative control, 0.1 mM), ATP standards (to construct the calibration curve, 0.375–3 mM) or samples (2.5 µL, in the concentration range 0.7–20 mM). After that, MgATP (5 mM) was added to total volume of 50 µL to each well to initiate the ATPase reaction. The plate was incubated for 1 h at 37 °C. Thereafter, the reaction was stopped by adding 50 µL of ATP detection reagent and incubated at room temperature for 20 min. The remaining non-metabolized ATP was detected as a luciferase-generated signal.
# Using linear regression, the standard ATP curve was designed, and by subsequent interpolation of relative luminescence (RLU) of standards, the amount of ATP consumed in the samples was recalculated according to the manufacturer’s guidelines.
# [4] = ORAC (oxygen radical absorption capacity) assay; details: fluorescein/AAPH; read-out: ORAC, concentration necessary to halve the fluorescence response (IC50)
# Experimental: Antioxidant capacity of samples was determined by ORAC (oxygen radical absorption capacity) and CAA (cellular antioxidant activity) assays. ORAC assay was realized by the previously described protocol. Briefly, 50 µL of the fluorescein solution (1.6 µg/mL in phosphate-buffered saline (PBS), pH 7.4) was added by a dispenser (MultiFlo Microplate Dispenser, BioTek Instrument, Winooski, VT, USA) into each well of a 96-well plate. Subsequently, 2 µL of tested compound in the concentration range 1.25–20 µM and 23 µL of PBS were added to the wells. The plate was incubated for 15 min at 37 °C and then 25 µL of AAPH (60 mg/mL) was added to each well. AAPH was replaced with PBS for the negative control. Immediately, the fluorescence was recorded by the microplate reader (SpectraMax i3 Multi-Mode Detection Platform, Molecular Devices, San Jose, CA, USA) for 2 h in 5 min steps (excitation/emission 485/535 nm).
# HepG2 cells = experiment: CAA (cellular antioxidant activity) assay; format: cell-based; details: Homo sapiens; HepG2, DCFH-DA/AAPH; read-out: CAA, concentration necessary to halve the fluorescence response (IC50)
# Experimental: For the CAA assay, human hepatocellular carcinoma HepG2 cells (ATCC, Manassas, VA, USA) were seeded into a 96-well microplate at a density of 1 × 10^5 cells/well in EMEM medium supplemented with 10% of FBS, 2 mM L-glutamine and 1 × antibiotic antimycotic solution. The cells were maintained in a CO2 incubator (5% CO2, 37 °C, Memmert GmbH & Co, Büchenbach, Germany). The following day, the plates were washed with PBS and new fresh DMEM was added into each well supplemented with tested samples in the concentration range of 6.25–100 µM and fluorescent probe DCFH-DA (12.5 mg/L). After 1 h of incubation at 37 °C, the medium was replaced with AAPH solution (0.16 mg/mL in PBS), except for the negative control, where PBS was added instead. Directly, the fluorescence was recorded for 2 h in 5 min steps at 485/540 nm excitation/emission (ex./em.).
# T1 sequence (P08183 whole entry): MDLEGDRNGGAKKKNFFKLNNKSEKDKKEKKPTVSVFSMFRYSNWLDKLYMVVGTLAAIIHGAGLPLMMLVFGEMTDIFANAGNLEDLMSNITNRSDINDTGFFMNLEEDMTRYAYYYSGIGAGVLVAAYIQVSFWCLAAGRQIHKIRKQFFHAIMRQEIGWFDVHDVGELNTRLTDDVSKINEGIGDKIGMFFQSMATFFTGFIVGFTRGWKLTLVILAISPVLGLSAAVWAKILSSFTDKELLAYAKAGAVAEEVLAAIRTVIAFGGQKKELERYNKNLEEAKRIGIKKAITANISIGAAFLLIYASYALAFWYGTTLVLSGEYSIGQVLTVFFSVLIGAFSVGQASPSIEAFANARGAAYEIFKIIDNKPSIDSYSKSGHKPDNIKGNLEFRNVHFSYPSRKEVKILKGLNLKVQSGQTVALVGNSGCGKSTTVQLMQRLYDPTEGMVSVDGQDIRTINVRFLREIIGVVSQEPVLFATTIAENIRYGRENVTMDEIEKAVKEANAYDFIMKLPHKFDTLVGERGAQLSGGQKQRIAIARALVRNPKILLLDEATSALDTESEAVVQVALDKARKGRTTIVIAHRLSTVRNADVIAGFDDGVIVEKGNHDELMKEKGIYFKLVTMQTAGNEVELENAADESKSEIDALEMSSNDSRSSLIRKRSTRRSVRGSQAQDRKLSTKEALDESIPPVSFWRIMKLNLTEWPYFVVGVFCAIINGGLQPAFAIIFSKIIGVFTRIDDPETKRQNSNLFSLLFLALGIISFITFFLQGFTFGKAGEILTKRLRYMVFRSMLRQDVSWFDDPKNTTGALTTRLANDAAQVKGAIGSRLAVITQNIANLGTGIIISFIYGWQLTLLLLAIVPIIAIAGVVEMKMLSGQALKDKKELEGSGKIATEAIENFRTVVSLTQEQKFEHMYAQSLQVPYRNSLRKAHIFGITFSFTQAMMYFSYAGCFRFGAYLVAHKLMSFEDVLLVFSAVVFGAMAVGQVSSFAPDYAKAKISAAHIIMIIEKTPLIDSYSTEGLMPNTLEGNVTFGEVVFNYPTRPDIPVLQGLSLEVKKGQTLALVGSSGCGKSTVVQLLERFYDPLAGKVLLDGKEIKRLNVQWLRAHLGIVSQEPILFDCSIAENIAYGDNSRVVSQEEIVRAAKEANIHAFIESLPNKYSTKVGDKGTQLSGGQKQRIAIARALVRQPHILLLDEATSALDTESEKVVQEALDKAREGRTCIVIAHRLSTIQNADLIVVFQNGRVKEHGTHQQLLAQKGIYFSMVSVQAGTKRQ
compound,measurement,setting,value
"COc1ccc2c(c1)c(CC(=O)O)c(C)n2C(=O)c1ccc(Cl)cc1 [Indomethacin, indomethacin, reference compound]",IC50,[1],78.1 ± 7.5 µM
"COc1cccc2c1C(=O)c1c(O)c3c(c(O)c1C2=O)C[C@@](O)(C(=O)CO)C[C@@H]3O[C@H]1C[C@H](N)[C@H](O)[C@H](C)O1 [Doxorubicin, doxorubicin hydrochloride, reference compound]",IC25,A2780/DOX [2]; A2780/DOX,0.94 µM
same,IC50,"A2780/DOX [2]; Homo sapiens, A2780, read-out: IC50 (µM), concentration necessary to halve cell viability",1.88 ± 0.07 µM
same,IC50,A2780/DOX [3],1.88 ± 0.07 µM
"[Na+].[Na+].[Na+].[O]=[V]([O-])([O-])[O-] [Orthovanadate, Sodium orthovanadate (Na3VO4), reference compound]",IC50,human recombinant P-gp,18.9 ± 1.8 µM
"O=c1c(O)c(-c2ccc(O)c(O)c2)oc2cc(O)cc(O)c12 [Quercetin, quercetin, reference compound]",IC50,[4],6 ± 0.7 µM
same,IC50,HepG2 cells,5.4 ± 0.3 µM
